# Several values for one entry are separate records, joined by “and”; a condition that tells them apart may be missing. Equal entries are not always repeated. Entries after “also recorded” stand apart in the source; their conditions may differ. Where two headings read alike, the source gives them in different places.
# Legend:
# [1] = target: T1, SARS-CoV-2 NSP3 macrodomain (Severe acute respiratory syndrome coronavirus 2, UniProt P0DTD1); experiment: NSP3 macrodomain HTRF assay, displacement of ADP-ribose-conjugated biotin peptide; assay type: binding; conditions: HTRF assay, up to 5 mM concentration
# SARS-CoV-2 = experiment: microbe, parasite or virus in culture; assay type: cell-based; conditions: for EC50: Vero E6 cells, 48 h post infection, read-out: EC50, blocking SARS-CoV-2 replication; for antiviral activity in the cellular assay (in words): infected Vero E6 cells
# [2] = target: T1, SARS-CoV-2 NSP3 macrodomain; experiment: X-ray fragment screening (XChem, crystal soaking); assay type: binding
# human 5-HT1A receptor = target: T2, human 5-HT1A receptor (Homo sapiens, UniProt P08908); experiment: GPCR radioligand binding assay, [3H]-8-OH-DPAT displacement, HEK293 membranes
# T2 construct: expressed in transfected cells
# T2 sequence (P08908 1-422): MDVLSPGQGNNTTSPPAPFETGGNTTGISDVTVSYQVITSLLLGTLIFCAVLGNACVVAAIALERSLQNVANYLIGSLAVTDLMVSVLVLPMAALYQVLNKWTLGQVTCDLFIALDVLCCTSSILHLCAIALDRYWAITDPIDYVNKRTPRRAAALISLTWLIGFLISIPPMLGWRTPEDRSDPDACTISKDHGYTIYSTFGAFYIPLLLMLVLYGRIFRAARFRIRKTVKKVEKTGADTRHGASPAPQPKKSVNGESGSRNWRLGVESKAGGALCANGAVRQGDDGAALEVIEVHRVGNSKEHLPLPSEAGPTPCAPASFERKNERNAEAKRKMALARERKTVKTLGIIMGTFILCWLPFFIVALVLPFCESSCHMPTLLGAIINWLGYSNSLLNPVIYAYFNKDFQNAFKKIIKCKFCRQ
# human 5-HT6 receptor = target: T3, human 5-HT6 receptor (Homo sapiens, UniProt P50406); experiment: GPCR radioligand binding assay, [3H]-LSD displacement, HEK293 membranes
# T3 construct: expressed in transfected cells
# T3 sequence (P50406 whole entry): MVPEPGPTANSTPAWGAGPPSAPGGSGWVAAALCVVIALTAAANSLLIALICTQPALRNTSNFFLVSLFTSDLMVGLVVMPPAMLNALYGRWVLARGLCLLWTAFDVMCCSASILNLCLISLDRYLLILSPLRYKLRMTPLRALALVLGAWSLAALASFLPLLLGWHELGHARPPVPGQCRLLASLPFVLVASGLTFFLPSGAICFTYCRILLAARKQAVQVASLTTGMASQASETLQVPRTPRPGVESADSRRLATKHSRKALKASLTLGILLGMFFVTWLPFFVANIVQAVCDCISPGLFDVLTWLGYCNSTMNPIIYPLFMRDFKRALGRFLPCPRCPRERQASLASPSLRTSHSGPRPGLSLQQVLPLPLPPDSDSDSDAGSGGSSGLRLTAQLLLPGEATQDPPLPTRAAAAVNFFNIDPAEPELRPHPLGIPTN
# human 5-HT7b receptor = target: T4, human 5-HT7b receptor (Homo sapiens, UniProt P34969); experiment: GPCR radioligand binding assay, [3H]-5-CT displacement, HEK293 membranes
# T4 construct: expressed in transfected cells
# T4 sequence (P34969 1-432): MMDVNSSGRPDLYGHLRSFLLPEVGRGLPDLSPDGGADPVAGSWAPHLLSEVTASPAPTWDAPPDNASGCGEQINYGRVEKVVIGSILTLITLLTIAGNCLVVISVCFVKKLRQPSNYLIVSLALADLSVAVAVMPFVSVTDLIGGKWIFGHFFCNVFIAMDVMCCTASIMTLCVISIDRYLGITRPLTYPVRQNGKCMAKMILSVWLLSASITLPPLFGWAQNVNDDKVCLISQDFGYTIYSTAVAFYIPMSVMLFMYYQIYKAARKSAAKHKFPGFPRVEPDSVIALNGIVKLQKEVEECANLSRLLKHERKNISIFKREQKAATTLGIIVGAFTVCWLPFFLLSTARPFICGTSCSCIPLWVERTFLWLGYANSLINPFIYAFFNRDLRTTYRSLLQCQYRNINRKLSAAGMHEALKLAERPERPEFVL
# human thrombin = target: T5, human thrombin (Homo sapiens, UniProt P00734); experiment: Protease inhibitory assay, chromogenic substrate S-2238; assay type: biochemical; conditions: plate layout, label = plate position; Cheng-Prusoff, Km 2.6 µM; read-out: Thrombin Ki
# T5 construct: human thrombin; purchased Sigma-Aldrich
# recombinant SETD2 = target: T6, recombinant SETD2 (Homo sapiens, UniProt Q9BYW2); experiment: SETD2 Chemiluminescence assay (H3K36 tri-methylation); assay type: biochemical; conditions: for SETD2 signal normalised to positive control and internally to compound: nM], replicates
# T6 construct: purchased BPS Bioscience 52060
# T6 sequence (Q9BYW2 1418-1714 limits assumed): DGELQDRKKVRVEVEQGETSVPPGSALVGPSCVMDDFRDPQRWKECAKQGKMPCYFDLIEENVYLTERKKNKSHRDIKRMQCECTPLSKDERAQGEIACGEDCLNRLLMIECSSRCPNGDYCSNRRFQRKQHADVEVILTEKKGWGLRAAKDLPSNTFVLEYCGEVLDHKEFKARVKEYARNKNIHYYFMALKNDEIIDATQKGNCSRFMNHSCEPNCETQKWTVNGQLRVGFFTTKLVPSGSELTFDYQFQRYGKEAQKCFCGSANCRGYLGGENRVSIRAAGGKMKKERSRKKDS
# MOLM-13 leukemia cells = experiment: Cell viability assay, CellTiter-Glo, 5 days; conditions: for normalized viability (0 = 0 % viability, 1 = 100 % viability): MOLM-13, nM], replicates
# MV4-11 leukemia cells = experiment: Cell viability assay, CellTiter-Glo, 5 days; conditions: for normalized viability (0 = 0 % viability, 1 = 100 % viability): MV4-11, nM], replicates
compound,measurement,setting,value
CC1C(=O)NC(=O)N1c1ccc(Cl)cc1 (stereo not drawn) [SX051],activity in the NSP3 enzyme assay (in words),[1],no activity
same,Inhibition (%) of viral copy numbers,"SARS-CoV-2; 10 uM, replicates",0% and 9.716% and 1.026%
same,viral copy numbers normalized to the control (untreated infected cells),"SARS-CoV-2; 10 uM, replicates",2.076 and 0.9028 and 0.9897
same,Inhibition (%) of viral copy numbers,"SARS-CoV-2; 100 uM, replicates",32.89% and 37.84%
same,viral copy numbers normalized to the control (untreated infected cells),"SARS-CoV-2; 100 uM, replicates",0.7145 and 0.6711 and 0.6216
same,Inhibition (%) of viral copy numbers,"SARS-CoV-2; 250 uM, replicates",83.75% and 96.5% and 61.73%
same,viral copy numbers normalized to the control (untreated infected cells),"SARS-CoV-2; 250 uM, replicates",0.1625 and 0.03502 and 0.3827
same,Inhibition (%) of viral copy numbers,"SARS-CoV-2; 500 uM, replicates",86.97% and 88.23%
same,viral copy numbers normalized to the control (untreated infected cells),"SARS-CoV-2; 500 uM, replicates",0.2487 and 0.1303 and 0.1177
same,Inhibition (%) of viral copy numbers,"SARS-CoV-2; 750 uM, replicates",96.17% and 94.15%
same,viral copy numbers normalized to the control (untreated infected cells),"SARS-CoV-2; 750 uM, replicates",0.05523 and 0.03827 and 0.05848
same,Inhibition (%) of viral copy numbers,"SARS-CoV-2; 1000 uM, replicates",100% and 99.81%
same,viral copy numbers normalized to the control (untreated infected cells),"SARS-CoV-2; 1000 uM, replicates",0.003839 and 0 and 0.001919
same,inhibition at 100 µM,"SARS-CoV-2; Severe acute respiratory syndrome coronavirus 2, Vero C1008, 100 uM, replicates, read-out: Inhibition (%) of viral copy numbers",28.5%
same,inhibition at 500 µM,"SARS-CoV-2; Severe acute respiratory syndrome coronavirus 2, Vero C1008, 500 uM, replicates, read-out: Inhibition (%) of viral copy numbers",75.1%
same,inhibition at 750 µM,"SARS-CoV-2; Severe acute respiratory syndrome coronavirus 2, Vero C1008, 750 uM, replicates, read-out: Inhibition (%) of viral copy numbers",94.5%
same,inhibition at 1000 µM,"SARS-CoV-2; Severe acute respiratory syndrome coronavirus 2, Vero C1008, 1000 uM, replicates, read-out: Inhibition (%) of viral copy numbers",99.6%
same,EC50,"SARS-CoV-2; Severe acute respiratory syndrome coronavirus 2, Vero C1008, 48 h",136 µM
same,EC50,SARS-CoV-2,136 µM
same,antiviral activity in the cellular assay (in words),SARS-CoV-2,high micromolar range; also recorded: Significant antiviral activities
same,"X-ray screen result, binding site",[2],identified in the active site
Clc1ccc2nnnn2n1 [SX054],activity in the NSP3 enzyme assay (in words),[1],no activity
same,antiviral activity in the cellular assay (in words),SARS-CoV-2,inactive in cells
same,"X-ray screen result, binding site",[2],identified in the active site
CC1CCc2sc(C(=O)O)cc2C1 (stereo not drawn) [SX045],inhibition at 10 µM,"human 5-HT1A receptor; 10 µM, read-out: 5-HT1A % Inhibition by plate position",0%
same,inhibition at 10 µM,"human 5-HT1A receptor; 5-HT1A, average of exp_1 and exp_2, read-out: %inh 5-HT1A average",-1%
same,inhibition at 10 µM,"human 5-HT1A receptor; 5-HT1A, average, values below 0 and above 100% were set as 0 and 100, read-out: %inh 5-HT1A corrected*",0%
same,inhibition at 10 µM,"human 5-HT1A receptor; 5-HT1A, replicate exp_1, read-out: %inh 5-HT1A exp_1",-0.0944%
same,inhibition at 10 µM,"human 5-HT1A receptor; 5-HT1A, replicate exp_2, read-out: %inh 5-HT1A exp_2",-2%
same,inhibition at 10 µM,"human 5-HT6 receptor; 10 µM, read-out: 5-HT6 % Inhibition by plate position",45%
same,inhibition at 10 µM,"human 5-HT6 receptor; 5-HT6, average of exp_1 and exp_2, read-out: %inh 5-HT6 average",45%
same,inhibition at 10 µM,"human 5-HT6 receptor; 5-HT6, average, values below 0 and above 100% were set as 0 and 100, read-out: %inh 5-HT6 corrected*",45%
same,inhibition at 10 µM,"human 5-HT6 receptor; 5-HT6, replicate exp_1, read-out: %inh 5-HT6 exp_1",52%
same,inhibition at 10 µM,"human 5-HT6 receptor; 5-HT6, replicate exp_2, read-out: %inh 5-HT6 exp_2",38%
same,inhibition at 10 µM,"human 5-HT7b receptor; 10 µM, read-out: 5-HT7 % Inhibition by plate position",4.44%
same,inhibition at 10 µM,"human 5-HT7b receptor; 5-HT7, average of exp_1 and exp_2, read-out: %inh 5-HT7 average",4.44%
same,inhibition at 10 µM,"human 5-HT7b receptor; 5-HT7, average, values below 0 and above 100% were set as 0 and 100, read-out: %inh 5-HT7 corrected*",4.44%
same,inhibition at 10 µM,"human 5-HT7b receptor; 5-HT7, replicate exp_1, read-out: %inh 5-HT7 exp_1",-4.73%
same,inhibition at 10 µM,"human 5-HT7b receptor; 5-HT7, replicate exp_2, read-out: %inh 5-HT7 exp_2",14%
same,Ki,human thrombin,65 µM
same,IC50,recombinant SETD2; chemiluminescence-based enzymatic assay,300 µM
same,SETD2 signal normalised to positive control and internally to compound,recombinant SETD2; fragment concentration 4.4 [log,0.78 and 0.88
same,SETD2 signal normalised to positive control and internally to compound,recombinant SETD2; fragment concentration 5 [log,0.71 and 0.90
same,SETD2 signal normalised to positive control and internally to compound,recombinant SETD2; fragment concentration 5.3 [log,0.89 and 0.66
same,SETD2 signal normalised to positive control and internally to compound,recombinant SETD2; fragment concentration 5.6 [log,0.20 and 0.33
same,SETD2 signal normalised to positive control and internally to compound,recombinant SETD2; fragment concentration 5.9 [log,0.05 and 0.21
same,"normalized viability (0 = 0 % viability, 1 = 100 % viability)",MOLM-13 leukemia cells; concentration 2.18 [log,1.039 and 0.9762 and 0.9421
same,"normalized viability (0 = 0 % viability, 1 = 100 % viability)",MOLM-13 leukemia cells; concentration 2.66 [log,1.004 and 0.9844 and 0.9162
same,"normalized viability (0 = 0 % viability, 1 = 100 % viability)",MOLM-13 leukemia cells; concentration 3.14 [log,0.9835 and 0.9812 and 0.9002
same,"normalized viability (0 = 0 % viability, 1 = 100 % viability)",MOLM-13 leukemia cells; concentration 3.61 [log,0.9836 and 0.9626 and 0.8884
same,"normalized viability (0 = 0 % viability, 1 = 100 % viability)",MOLM-13 leukemia cells; concentration 4.09 [log,0.9563 and 0.9463 and 0.9164
same,"normalized viability (0 = 0 % viability, 1 = 100 % viability)",MOLM-13 leukemia cells; concentration 4.57 [log,0.8812 and 0.9087 and 0.8366
same,"normalized viability (0 = 0 % viability, 1 = 100 % viability)",MOLM-13 leukemia cells; concentration 5.05 [log,0.7992 and 0.5481 and 0.7667
same,"normalized viability (0 = 0 % viability, 1 = 100 % viability)",MOLM-13 leukemia cells; concentration 5.52 [log,0.5003 and 0.4827 and 0.2594
same,"normalized viability (0 = 0 % viability, 1 = 100 % viability)",MOLM-13 leukemia cells; concentration 6 [log,0.05284 and 0.001062 and 0.1076
same,IC50 cell viability / anti-proliferative EC50,"MOLM-13 leukemia cells; MOLM-13 cells, 5 days after treatment",333 µM
same,"normalized viability (0 = 0 % viability, 1 = 100 % viability)",MV4-11 leukemia cells; concentration 2.18 [log,0.9962 and 1.163 and 0.9666
same,"normalized viability (0 = 0 % viability, 1 = 100 % viability)",MV4-11 leukemia cells; concentration 2.66 [log,0.9943 and 0.9504 and 0.9572
same,"normalized viability (0 = 0 % viability, 1 = 100 % viability)",MV4-11 leukemia cells; concentration 3.14 [log,0.9413 and 0.941 and 0.9817
same,"normalized viability (0 = 0 % viability, 1 = 100 % viability)",MV4-11 leukemia cells; concentration 3.61 [log,0.7873 and 0.9285 and 0.9554
same,"normalized viability (0 = 0 % viability, 1 = 100 % viability)",MV4-11 leukemia cells; concentration 4.09 [log,0.7566 and 0.9251 and 0.9854
same,"normalized viability (0 = 0 % viability, 1 = 100 % viability)",MV4-11 leukemia cells; concentration 4.57 [log,0.732 and 0.9248 and 0.8741
same,"normalized viability (0 = 0 % viability, 1 = 100 % viability)",MV4-11 leukemia cells; concentration 5.05 [log,0.7081 and 0.7223 and 0.7408
same,"normalized viability (0 = 0 % viability, 1 = 100 % viability)",MV4-11 leukemia cells; concentration 5.52 [log,0.4531 and 0.4099 and 0.4328
same,"normalized viability (0 = 0 % viability, 1 = 100 % viability)",MV4-11 leukemia cells; concentration 6 [log,0.0008148 and 0.0004041 and 0.01018
same,IC50 cell viability / anti-proliferative EC50,"MV4-11 leukemia cells; MV4-11 cells, 5 days after treatment",400 µM
